Measurements published in paper PMC6915728 (Nature Communications, 2019).
Read-outs that look alike come from different tables or passages of the source.

Experiments:
[1] = system: E. coli; conditions: previous laboratory evolution experiment; cited from earlier work
From the text: The results presented in this study may have important implications for the development of AMP-based therapies. Previous works reported several instances of cross-resistance interactions between membrane-targeting peptides (Supplementary Data 1), however, the potential for cross-resistance across AMPs with different modes of action has remained poorly understood. Specifically, while cross-resistance between host and therapeutic AMPs is certainly a realistic danger, not all AMPs are equally prone to cross-resistance. Given the immense diversity of AMPs with major differences in physicochemical ...

[2] = system: E. coli BW25113 overexpression strains (ASKA plasmids); assay: Minimum inhibitory concentration (MIC), serial broth dilution, single-gene overexpression strains vs empty-vector control; type: cell-based, Escherichia coli; conditions: broth dilution, MS medium, 100 µM IPTG, 30 °C, 20-24 h, OD600, 3 replicates
Outline: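 E. coli overexpression strains grown in MS medium with chloramphenicol, induced with 100 µM IPTG for 1 h at 30 °C, then about half-million cells inoculated into 12-step AMP dilutions (typically 1.2-fold steps). OD600 read after 20–24 h at 30 °C with shaking; triplicate strains compared with empty-vector control.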

[3] = system: AMP-evolved E. coli lines; conditions: ref Spohn et al 2019, cited from earlier work
From the text: Supplement 41467_2019_13618_MOESM13_ESM.xlsx, sheet "Figure 6 and S15" | column: A comprehensive dataset of antimicrobial susceptibility of AMP-adapted lines to antimicrobial peptides (AMPs).

[4] = system: bacterial membrane; conditions: literature mining; ref superscript numbers in the cell, listed in Supplementary Data 7 sheet References; cited from earlier work
From the text: Supplement 41467_2019_13618_MOESM10_ESM.xlsx, sheet "AMP details" | column: Pore formation

Sequence: SWLSKTAKKLENSAKKRISEGIAIAIQGGPR [CP1, Cecropin P1, antimicrobial peptide, source Ascaris suum; disrupts cell membrane; cluster C1]
- Emergence of resistant lines in laboratory evolution [1]: did not result in any significant resistant lines
- Relative MIC ([2]; overexpression strain nikB, MIC of overexpression strain / MIC of empty-plasmid control): 0.8
- Relative MIC ([2]; overexpression strain ptsN, MIC of overexpression strain / MIC of empty-plasmid control): 0.76
- Relative MIC ([2]; overexpression strain yiaJ, MIC of overexpression strain / MIC of empty-plasmid control): 0.8
- Relative change in MIC (MIC of the AMP-adpated line / MIC of the ancestral strain) ([3]; AMP-adapted line BAC5_3): 1.1
- Relative change in MIC (MIC of the AMP-adpated line / MIC of the ancestral strain) ([3]; AMP-adapted line BAC5_5): 1.2
- Relative change in MIC (MIC of the AMP-adpated line / MIC of the ancestral strain) ([3]; AMP-adapted line BAC5_7): 1
- Relative change in MIC (MIC of the AMP-adpated line / MIC of the ancestral strain) ([3]; AMP-adapted line BAC5_10): 1
- Relative change in MIC (MIC of the AMP-adpated line / MIC of the ancestral strain) ([3]; AMP-adapted line CAP18_2): 1
- Relative change in MIC (MIC of the AMP-adpated line / MIC of the ancestral strain) ([3]; AMP-adapted line CAP18_5): 1.2
- Relative change in MIC (MIC of the AMP-adpated line / MIC of the ancestral strain) ([3]; AMP-adapted line CAP18_6): 1
- Relative change in MIC (MIC of the AMP-adpated line / MIC of the ancestral strain) ([3]; AMP-adapted line CAP18_8): 1
- Relative change in MIC (MIC of the AMP-adpated line / MIC of the ancestral strain) ([3]; AMP-adapted line CAP18_10): 1
- Relative change in MIC (MIC of the AMP-adpated line / MIC of the ancestral strain) ([3]; AMP-adapted line HBD3_3): 1.1
- Relative change in MIC (MIC of the AMP-adpated line / MIC of the ancestral strain) ([3]; AMP-adapted line HBD3_6): 1.1
- Relative change in MIC (MIC of the AMP-adpated line / MIC of the ancestral strain) ([3]; AMP-adapted line HBD3_8): 1.2
- Relative change in MIC (MIC of the AMP-adpated line / MIC of the ancestral strain) ([3]; AMP-adapted line HBD3_10): 1.2
- Relative change in MIC (MIC of the AMP-adpated line / MIC of the ancestral strain) ([3]; AMP-adapted line LL37_1): 0.8
- Relative change in MIC (MIC of the AMP-adpated line / MIC of the ancestral strain) ([3]; AMP-adapted line LL37_3): 1
- Relative change in MIC (MIC of the AMP-adpated line / MIC of the ancestral strain) ([3]; AMP-adapted line LL37_6): 0.9
- Relative change in MIC (MIC of the AMP-adpated line / MIC of the ancestral strain) ([3]; AMP-adapted line LL37_7): 1.1
- Relative change in MIC (MIC of the AMP-adpated line / MIC of the ancestral strain) ([3]; AMP-adapted line LL37_10): 0.9
- Relative change in MIC (MIC of the AMP-adpated line / MIC of the ancestral strain) ([3]; AMP-adapted line PEX_1): 1.1
- Relative change in MIC (MIC of the AMP-adpated line / MIC of the ancestral strain) ([3]; AMP-adapted line PEX_4): 1.2
- Relative change in MIC (MIC of the AMP-adpated line / MIC of the ancestral strain) ([3]; AMP-adapted line PEX_5): 1.1
- Relative change in MIC (MIC of the AMP-adpated line / MIC of the ancestral strain) ([3]; AMP-adapted line PEX_6): 1
- Relative change in MIC (MIC of the AMP-adpated line / MIC of the ancestral strain) ([3]; AMP-adapted line PEX_7): 1.3
- Relative change in MIC (MIC of the AMP-adpated line / MIC of the ancestral strain) ([3]; AMP-adapted line PR39_1): 1.1
- Relative change in MIC (MIC of the AMP-adpated line / MIC of the ancestral strain) ([3]; AMP-adapted line PR39_2): 1.1
- Relative change in MIC (MIC of the AMP-adpated line / MIC of the ancestral strain) ([3]; AMP-adapted line PR39_5): 1
- Relative change in MIC (MIC of the AMP-adpated line / MIC of the ancestral strain) ([3]; AMP-adapted line PR39_7): 1
- Relative change in MIC (MIC of the AMP-adpated line / MIC of the ancestral strain) ([3]; AMP-adapted line PR39_10): 0.8
- Relative change in MIC (MIC of the AMP-adpated line / MIC of the ancestral strain) ([3]; AMP-adapted line PROA_2): 1.1
- Relative change in MIC (MIC of the AMP-adpated line / MIC of the ancestral strain) ([3]; AMP-adapted line PROA_3): 0.9
- Relative change in MIC (MIC of the AMP-adpated line / MIC of the ancestral strain) ([3]; AMP-adapted line PROA_7): 0.8
- Relative change in MIC (MIC of the AMP-adpated line / MIC of the ancestral strain) ([3]; AMP-adapted line PROA_8): 0.9
- Relative change in MIC (MIC of the AMP-adpated line / MIC of the ancestral strain) ([3]; AMP-adapted line PROA_9): 1.1
- Relative change in MIC (MIC of the AMP-adpated line / MIC of the ancestral strain) ([3]; AMP-adapted line PXB_2): 1.3
- Relative change in MIC (MIC of the AMP-adpated line / MIC of the ancestral strain) ([3]; AMP-adapted line PXB_5): 1
- Relative change in MIC (MIC of the AMP-adpated line / MIC of the ancestral strain) ([3]; AMP-adapted line PXB_6): 1.2
- Relative change in MIC (MIC of the AMP-adpated line / MIC of the ancestral strain) ([3]; AMP-adapted line PXB_8): 1.1
- Relative change in MIC (MIC of the AMP-adpated line / MIC of the ancestral strain) ([3]; AMP-adapted line PXB_10): 1.2
- Pore formation (whether AMP makes pores in the bacterial membrane) [4]: Yes6-8

Sequence: FLGKVFKLASKVFKAVFGKV [R8, synthetic AMP (from linguistic model); cluster C1]
- Emergence of resistant lines in laboratory evolution [1]: did not result in any significant resistant lines
- Relative MIC ([2]; overexpression strain mlaD, MIC of the overexpression strain / MIC of the control strain (wild-type carrying the empty plasmid)): 1
- Relative MIC ([2]; overexpression strain mzrA, MIC of overexpression strain / MIC of empty-plasmid control): 1.3
- Relative MIC ([2]; overexpression strain yhbJ, MIC of overexpression strain / MIC of empty-plasmid control): 1
- Relative change in MIC (MIC of the AMP-adpated line / MIC of the ancestral strain) ([3]; AMP-adapted line BAC5_3): 1
- Relative change in MIC (MIC of the AMP-adpated line / MIC of the ancestral strain) ([3]; AMP-adapted line BAC5_5): 1
- Relative change in MIC (MIC of the AMP-adpated line / MIC of the ancestral strain) ([3]; AMP-adapted line BAC5_7): 1.1
- Relative change in MIC (MIC of the AMP-adpated line / MIC of the ancestral strain) ([3]; AMP-adapted line BAC5_10): 1.1
- Relative change in MIC (MIC of the AMP-adpated line / MIC of the ancestral strain) ([3]; AMP-adapted line CAP18_2): 1.2
- Relative change in MIC (MIC of the AMP-adpated line / MIC of the ancestral strain) ([3]; AMP-adapted line CAP18_5): 1.1
- Relative change in MIC (MIC of the AMP-adpated line / MIC of the ancestral strain) ([3]; AMP-adapted line CAP18_6): 1
- Relative change in MIC (MIC of the AMP-adpated line / MIC of the ancestral strain) ([3]; AMP-adapted line CAP18_8): 1.1
- Relative change in MIC (MIC of the AMP-adpated line / MIC of the ancestral strain) ([3]; AMP-adapted line CAP18_10): 1.2
- Relative change in MIC (MIC of the AMP-adpated line / MIC of the ancestral strain) ([3]; AMP-adapted line HBD3_3): 1
- Relative change in MIC (MIC of the AMP-adpated line / MIC of the ancestral strain) ([3]; AMP-adapted line HBD3_6): 1.2
- Relative change in MIC (MIC of the AMP-adpated line / MIC of the ancestral strain) ([3]; AMP-adapted line HBD3_8): 1
- Relative change in MIC (MIC of the AMP-adpated line / MIC of the ancestral strain) ([3]; AMP-adapted line HBD3_10): 1
- Relative change in MIC (MIC of the AMP-adpated line / MIC of the ancestral strain) ([3]; AMP-adapted line LL37_1): 1.2
- Relative change in MIC (MIC of the AMP-adpated line / MIC of the ancestral strain) ([3]; AMP-adapted line LL37_3): 1.2
- Relative change in MIC (MIC of the AMP-adpated line / MIC of the ancestral strain) ([3]; AMP-adapted line LL37_6): 1
- Relative change in MIC (MIC of the AMP-adpated line / MIC of the ancestral strain) ([3]; AMP-adapted line LL37_7): 1.1
- Relative change in MIC (MIC of the AMP-adpated line / MIC of the ancestral strain) ([3]; AMP-adapted line LL37_10): 1.2
- Relative change in MIC (MIC of the AMP-adpated line / MIC of the ancestral strain) ([3]; AMP-adapted line PEX_1): 1.1
- Relative change in MIC (MIC of the AMP-adpated line / MIC of the ancestral strain) ([3]; AMP-adapted line PEX_4): 1.2
- Relative change in MIC (MIC of the AMP-adpated line / MIC of the ancestral strain) ([3]; AMP-adapted line PEX_5): 1.1
- Relative change in MIC (MIC of the AMP-adpated line / MIC of the ancestral strain) ([3]; AMP-adapted line PEX_6): 1
- Relative change in MIC (MIC of the AMP-adpated line / MIC of the ancestral strain) ([3]; AMP-adapted line PEX_7): 1.2
- Relative change in MIC (MIC of the AMP-adpated line / MIC of the ancestral strain) ([3]; AMP-adapted line PR39_1): 1.1
- Relative change in MIC (MIC of the AMP-adpated line / MIC of the ancestral strain) ([3]; AMP-adapted line PR39_2): 1
- Relative change in MIC (MIC of the AMP-adpated line / MIC of the ancestral strain) ([3]; AMP-adapted line PR39_5): 1
- Relative change in MIC (MIC of the AMP-adpated line / MIC of the ancestral strain) ([3]; AMP-adapted line PR39_7): 1
- Relative change in MIC (MIC of the AMP-adpated line / MIC of the ancestral strain) ([3]; AMP-adapted line PR39_10): 1
- Relative change in MIC (MIC of the AMP-adpated line / MIC of the ancestral strain) ([3]; AMP-adapted line PROA_2): 1
- Relative change in MIC (MIC of the AMP-adpated line / MIC of the ancestral strain) ([3]; AMP-adapted line PROA_3): 1
- Relative change in MIC (MIC of the AMP-adpated line / MIC of the ancestral strain) ([3]; AMP-adapted line PROA_7): 1
- Relative change in MIC (MIC of the AMP-adpated line / MIC of the ancestral strain) ([3]; AMP-adapted line PROA_8): 1
- Relative change in MIC (MIC of the AMP-adpated line / MIC of the ancestral strain) ([3]; AMP-adapted line PROA_9): 1
- Relative change in MIC (MIC of the AMP-adpated line / MIC of the ancestral strain) ([3]; AMP-adapted line PXB_2): 1
- Relative change in MIC (MIC of the AMP-adpated line / MIC of the ancestral strain) ([3]; AMP-adapted line PXB_5): 1.7
- Relative change in MIC (MIC of the AMP-adpated line / MIC of the ancestral strain) ([3]; AMP-adapted line PXB_6): 1.9
- Relative change in MIC (MIC of the AMP-adpated line / MIC of the ancestral strain) ([3]; AMP-adapted line PXB_8): 1.9
- Relative change in MIC (MIC of the AMP-adpated line / MIC of the ancestral strain) ([3]; AMP-adapted line PXB_10): 1.2
